Reference: PMC4769088, “Antifungal Activity and Action Mechanism of Histatin 5-Halocidin Hybrid Peptides against Candida ssp” (PLoS ONE, 2016)
Like-named read-outs stand apart in the source and are kept apart here. Where a SMILES comes first, the peptide text is derived from it. Bridges are numbered along the chain shown (N, C = ends). Roman numbers before positions name the chains, in order. Where no end group is shown, it is not given here.

Legend:
[1] = system: C. guilliermondi CCARM 14018; format: cell-based
Method: (§1) To determine the candidacidal activity of the peptides, we used Candida strains obtained from the Culture collection of antimicrobial resistant microbes at Seoul Women’s University in Korea. These included three Candida albicans (CCARM 14020, 14021, 14022), Candida guillermondi and Candida tropicalis. In addition, Candida albicans SC5413 was kindly provided by Dr Jeong-Yoon Kim at the Department of Microbiology & Molecular Biology, Chungnam University, Korea. Yeast were cultured overnight at 30°C in 10 ml of yeast extract-peptone-dextrose (YPD) broth (Qbiogene), then diluted in 10 ml of YPD broth to OD600 = 0.2 and grown for an additional 4 h with shaking at 30°C until OD600 = 0.8 in order to obtain mid-log phase cultures. The peptides (Hst 5, P113, HHP1, HHP2, PH1, PH2, di-PH1, di-PH2, WP1, di-WP2, di-15Hc and di-18Hc) in this study were synthesized by using standard solid-phase synthesis protocols and were purified by reversed-phase high-performance liquid chromatography at Anygen Inc. (Korea). FITC-labeled peptides (F-Hst5, F-P113, F-HHP1, F-di-PH2, F-di-WP2 and F-di-18Hc) were also synthesized by 6-aminohexnoic acid linker at Anygen (Korea) for confocal experiments.
(§2) The candidacidal activities of the peptides were tested by using standard microdilution plate assays, radial diffusion assays and broth dilution assay slightly modified from the procedure recommended by the National Committee for Clinical Laboratory Standards. For the candidacidal assays, C. albicans cells were grown in YPD medium and washed twice with 10 mM sodium phosphate buffer (NaPB; Na2HPO4, NaH2PO4, pH 7.4). The cells (1 x 10^6) were then mixed with different concentrations of peptides and incubated at 30°C with constant shaking for 60 min. For energy depletion experiments, cells were pre-incubated with 10 mM NaPB containing 5 mM NaN3 at 30°C for 60 min before the addition of peptides. The cell suspensions were diluted in 10 mM NaPB and aliquots of 500 cells were spread onto YPD agar plates then incubated for 24 h at 30°C to visualize the surviving colonies. Cell survival was expressed as a percentage of that for the control, and the loss of viability was calculated as [1 x (number of colonies from peptide-treated cells/number of colonies from control cells)] x 100. Candidacidal assays were performed in triplicate. For the radial diffusion assay, C. albicans cells were grown in YPD medium overnight and washed twice with 10 mM NaPB. Washed yeast-phase C. albicans cells (1 x 10^6 CFU) were trapped in thin underlay gels containing 9 mM sodium phosphate, 1 mM sodium citrate buffer, 1% (wt/vol) agarose (A6013; Sigma), and 0.3 mg of Sabouraud dextrose broth (Difco)/ml. After incubation at 37°C for 3 h, a 10 ml overlay gel of 1% agarose and 6% Sabouraud dextrose broth was poured on the underlay gel and then the plates were incubated overnight at 37°C. The clear-zone diameters were measured to the nearest 0.1 mm and graphed against the peptide concentration. Zone diameters were expressed in units (0.1 mm = 1 unit). For the broth dilution assay, the Candida strains were cultured in LYM broth for 18 h at 30°C. The numbers of yeasts were counted using a hemocytometer. Stock peptide solutions were prepared to a concentration of 320 μg/ml in distilled water, and were then serially diluted twofold, to 5 μg/ml. 100 μl aliquots of the diluted culture media containing candida cells (1 x 10^3) were dispensed into the wells of 96-well polypropylene microtiter plates (Costar 3879, Corning, NY), to which peptide solution (11 μl) was then added. In the experiments conducted to assess the candidacidal activity of peptides in the presence of salt, we used LYM supplemented with 150 mM NaCl for the culture medium, which was mixed with the peptide solution. The antifungal activities were evaluated after 24 h of incubation at 30°C by the observation of visible turbidity the wells. […]

[2] = system: C. guilliermondi CCARM 14019; format: cell-based
Method: as §1, §2

Candida albicans cells = experiment: Confocal microscopy localization and FITC-peptide/PI uptake assay; format: cell-based; conditions: FITC-peptides and propidium iodide uptake assay, measured for 60 min
Method: To confirm the killing effect of the peptides, washed Candida cells (1 × 10^7 cells/ml) were treated with the peptides and propidium iodide (PI) was added. For energy depletion experiments, cells were pre-incubated with 10 mM NaPB containing 5 mM NaN3 at 30°C for 60 min before the addition of peptides. Propidium iodide (PI) uptake was measured using a multi reader and calculated with the formula [propidium iodide (PI) uptake value of peptide-treated cells—propidium iodide (PI) value of control cells] C. albicans cells were attached to concanavalin A (Sigma, 1 mg/ml solution in water) coated coverglass in chambered wells (Lab-Tek II). Cells (1 x 10^6) were deposited in each well, and 1 ml of 10 mM NaPB containing 5 μg PI (Sigma) and FITC-labeled peptides (Final concentration 10 μg/ml) were added to the chamber. Confocal images were acquired with an Olympus Fluoview FV10i-DOC (Olympus, Tokyo, Japan). ImageJ software was used for image acquisition and analysis.  Fig 5 Localizations of FITC-peptides in Candida albicans cells. C. albicans cells were incubated for 10 minutes with 10 μg/ml of FITC-peptides and visualized by confocal microscopy. […] FITC-peptides and PI uptake was measured for 60 min in Perkin Elmer 2030 reader (VictorX 3).

C. albicans strains = experiment: Broth dilution assay (MIC), C. albicans strains; format: cell-based, Candida albicans; conditions: for killing activities against C. albicans strains in 150 mM salt: 150 mM NaCl; for decrease of killing activities in 150 mM salt: 150 mM NaCl versus no salt, C. albicans strains
Method: as §1
as §2, with “100 μl aliquots of the diluted culture media containing candida cells (1 x 10^3) were dispensed into the wells of 96-well polypropylene microtiter plates (Costar 3879, Corning, NY), to which peptide solution (11 μl) was then added. In the experiments conducted to assess the candidacidal activity of peptides in the presence of salt, we used LYM supplemented with 150 mM NaCl for the culture medium, which was mixed with the peptide solution.” left out

[3] = NaCl 150 mM, LYM supplemented with 150 mM NaCl, 24 h at 30°C

| Compound | MICs ([1]; CCARM 14018, 24 h) [µg/mL] | MICs [1, 3] | MICs ([2]; CCARM 14019, 24 h) [µg/mL] | MICs [2, 3] | FITC intensity in Candida cells (Candida albicans cells) | killing activities against C. albicans strains in 150 mM salt (C. albicans strains) | decrease of killing activities in 150 mM salt (C. albicans strains) |
| --- | --- | --- | --- | --- | --- | --- | --- |
| AKRHHGYKRKFH-NH2 [P113] | 0.5 to 1 | 32< μg/ml | 0.5 to 1 | 32< μg/ml | increased in a time dependent manner | abolished |  |
| CC(C)C[C@H](NC(=O)CNC(=O)[C@H](Cc1c[nH]cn1)NC(=O)[C@H](Cc1c[nH]cn1)NC(=O)[C@H](CC(C)C)NC(=O)[C@H](CC(C)C)NC(=O)[C@H](C)NC(=O)[C@H](CC(N)=O)NC(=O)[C@H](CC(C)C)NC(=O)[C@@H](N)Cc1c[nH]c2ccccc12)C(=O)N[C@@H](CC(N)=O)C(=O)N[C@@H](CSSC[C@H](NC(=O)[C@H](CC(N)=O)NC(=O)[C@H](CC(C)C)NC(=O)CNC(=O)[C@H](Cc1c[nH]cn1)NC(=O)[C@H](Cc1c[nH]cn1)NC(=O)[C@H](CC(C)C)NC(=O)[C@H](CC(C)C)NC(=O)[C@H](C)NC(=O)[C@H](CC(N)=O)NC(=O)[C@H](CC(C)C)NC(=O)[C@@H](N)Cc1c[nH]c2ccccc12)C(=O)N[C@@H](C)C(=O)N[C@@H](CCCCN)C(=O)NCC(=O)N[C@H](C(=O)N[C@@H](CC(C)C)C(=O)N[C@@H](C)C(N)=O)C(C)C)C(=O)N[C@@H](C)C(=O)N[C@@H](CCCCN)C(=O)NCC(=O)N[C@H](C(=O)N[C@@H](CC(C)C)C(=O)N[C@@H](C)C(N)=O)C(C)C [di-18Hc, reference compound] (I: H-WLNALLHHGLNCAKGVLA-NH2 / II: H-WLNALLHHGLNCAKGVLA-NH2; disulfide I:12-II:12 (inferred); N-terminus assumed) |  |  | 4 to 8 |  |  |  | 4-8 fold |
| CC(C)C[C@H](NC(=O)CNC(=O)[C@H](Cc1c[nH]cn1)NC(=O)[C@H](Cc1c[nH]cn1)NC(=O)[C@H](CCCNC(=N)N)NC(=O)[C@H](CCCCN)NC(=O)[C@H](C)N)C(=O)N[C@@H](CC(N)=O)C(=O)N[C@@H](CSSC[C@H](NC(=O)[C@H](CC(N)=O)NC(=O)[C@H](CC(C)C)NC(=O)CNC(=O)[C@H](Cc1c[nH]cn1)NC(=O)[C@H](Cc1c[nH]cn1)NC(=O)[C@H](CCCNC(=N)N)NC(=O)[C@H](CCCCN)NC(=O)[C@H](C)N)C(=O)N[C@@H](C)C(=O)N[C@@H](CCCCN)C(=O)N[C@@H](Cc1ccccc1)C(=O)N[C@@H](Cc1c[nH]cn1)C(N)=O)C(=O)N[C@@H](C)C(=O)N[C@@H](CCCCN)C(=O)N[C@@H](Cc1ccccc1)C(=O)N[C@@H](Cc1c[nH]cn1)C(N)=O [di-PH2] (I: H-AKRHHGLNCAKFH-NH2 / II: H-AKRHHGLNCAKFH-NH2; disulfide I:9-II:9 (inferred); N-terminus assumed) |  | 32< μg/ml |  |  | increased in a time dependent manner | abolished |  |
| C[C@H](NC(=O)[C@H](Cc1c[nH]cn1)NC(=O)[C@H](CO)NC(=O)[C@@H](N)CC(=O)O)C(=O)N[C@@H](CCCCN)C(=O)N[C@@H](CCCNC(=N)N)C(=O)N[C@@H](Cc1c[nH]cn1)C(=O)N[C@@H](Cc1c[nH]cn1)C(=O)NCC(=O)N[C@@H](Cc1ccc(O)cc1)C(=O)N[C@@H](CCCCN)C(=O)N[C@@H](CCCNC(=N)N)C(=O)N[C@@H](CCCCN)C(=O)N[C@@H](Cc1ccccc1)C(=O)N[C@@H](Cc1c[nH]cn1)C(=O)N[C@@H](CCC(=O)O)C(=O)N[C@@H](CCCCN)C(=O)N[C@@H](Cc1c[nH]cn1)C(=O)N[C@@H](Cc1c[nH]cn1)C(=O)N[C@@H](CO)C(=O)N[C@@H](Cc1c[nH]cn1)C(=O)N[C@@H](CCCNC(=N)N)C(=O)NCC(=O)N[C@@H](Cc1ccc(O)cc1)C(=O)O [Hst 5, Histatin 5] | 1 to 2 | 32< μg/ml | 2 to 4 | 32< μg/ml | increased in a time dependent manner | abolished |  |
| CC(C)C[C@H](NC(=O)[C@@H](N)Cc1c[nH]c2ccccc12)C(=O)N[C@@H](CC(N)=O)C(=O)N[C@@H](C)C(=O)N[C@@H](CCCCN)C(=O)N[C@@H](CCCNC(=N)N)C(=O)N[C@@H](Cc1c[nH]cn1)C(=O)N[C@@H](Cc1c[nH]cn1)C(=O)NCC(=O)N[C@@H](Cc1ccc(O)cc1)C(=O)N[C@@H](CCCCN)C(=O)N[C@@H](CSSC[C@H](NC(=O)[C@H](CCCCN)NC(=O)[C@H](Cc1ccc(O)cc1)NC(=O)CNC(=O)[C@H](Cc1c[nH]cn1)NC(=O)[C@H](Cc1c[nH]cn1)NC(=O)[C@H](CCCNC(=N)N)NC(=O)[C@H](CCCCN)NC(=O)[C@H](C)NC(=O)[C@H](CC(N)=O)NC(=O)[C@H](CC(C)C)NC(=O)[C@@H](N)Cc1c[nH]c2ccccc12)C(=O)N[C@@H](CCCCN)C(=O)N[C@@H](Cc1ccccc1)C(=O)N[C@@H](Cc1c[nH]cn1)C(N)=O)C(=O)N[C@@H](CCCCN)C(=O)N[C@@H](Cc1ccccc1)C(=O)N[C@@H](Cc1c[nH]cn1)C(N)=O [di-WP2] (I: H-WLNAKRHHGYKCKFH-NH2 / II: H-WLNAKRHHGYKCKFH-NH2; disulfide I:12-II:12 (inferred); N-terminus assumed) | 2 to 4 |  | 4 to 8 |  |  |  | 4-8 fold |
